Data on 8 compounds can be found in patent US20250228807A1, “TRANEXAMIC CLASS ARGININE AND HISTIDINE MIMICS AS THERAPEUTIC AGENTS” (Tranexamic Technologies, LLC, priority 2022, published 2025).

“Also recorded” adds a separate entry of the source.

The subject of data set [1] is MDA-MB 468 triple-negative breast cancer cells. Kind of data set: MTT cell viability assay. Type of data set: cell-based. The note with it: MDA-MB-468, 72 h, relative to TA. How it is done:
Effects of compounds on cell viability. MDA-MB 468 triple-negative breast cancer cells were plated at 6,250 cells per well in a 96-well plate and incubated overnight at 37° C. Cell viability was evaluated using the MTT (3-(4,5-dimethylthiazol-2-yl)-2,5-diphenyltetrazolium bromide) assay carried out according to manufacturer's instructions.

Data set [2] in a line: Aqueous solubility / preparation of solutions in PBS buffer. Type of data set: physicochemical. Particulars: for solubility: concentration of solution: PBS buffer. How it is done:
Chemical synthesis and solubility. TA was purchased from commercial sources and TA-NAc was prepared straightforwardly through acetylation of TA based on standard practices.
TA-R1-R4 were accessible from their corresponding amino acids through treatment with methylisothiourea hemisulfate. […] Esterification of TA-R1 to produce TA-R1OMe, a novel compound, improved the solubility for preparation of a 2% (w/v) solution in phosphate buffered saline (PBS) buffer (pH=7.4) and biological testing.
The requisite amino acids for synthesis of TA-R3/R4 required multistep synthetic approaches. Briefly, the preparation of TA-R3, a novel compound, began from cis-1,3-cyclohexanedicarboxylic acid and proceeded through eight sequential synthetic steps to afford the product as its HCl salt. Protection/deprotection of the amino group was required to facilitate purification, as was a stepwise oxidation sequence from the alcohol to the carboxylic acid. […] The approach to TA-R4, a known compound, required one additional step to produce the starting dicarboxylic acid, in this case through oxidative cleavage of norbornene. […] All the final compounds were fully characterized by ^1H nuclear magnetic resonance (NMR), ^13C NMR, and high-resolution electrospray ionization mass spectrometry (HRMS-ESI).

The test system of data set [3] is programmed death-ligand 1 (PD-L1). The data set is described as follows: Immunoblot analysis of treated MDA-MB-468 cells: PD-L1 expression. The format is cell-based. Particulars: high (2%) concentration. An excerpt: (§1) Biochemical evaluation of treatment of breast cancer cells with TA-R2. […] This is important because PD-L1 expression in cancer cells blocks T-cell-based immunity. So, TA-R2 would be predicted to increase anticancer immunity in immunocompetent systems. Histone acetyltransferase (HAT) enzyme assays were used to determine if TA-R2 inhibits p300 activity. […] This fits with the hypothesis that TAs act in part by inhibiting acetyltransferases such as p300/CPB that acetylate histones. No acetylation is observed in controls upon omission of H3/p300 or acetyl coenzyme A (Acetyl CoA).

The target in the next data set is T1, recombinant p300 (Homo sapiens, UniProt Q09472).
T1 construct: purchased
T1 sequence (Q09472 whole entry, species assumed): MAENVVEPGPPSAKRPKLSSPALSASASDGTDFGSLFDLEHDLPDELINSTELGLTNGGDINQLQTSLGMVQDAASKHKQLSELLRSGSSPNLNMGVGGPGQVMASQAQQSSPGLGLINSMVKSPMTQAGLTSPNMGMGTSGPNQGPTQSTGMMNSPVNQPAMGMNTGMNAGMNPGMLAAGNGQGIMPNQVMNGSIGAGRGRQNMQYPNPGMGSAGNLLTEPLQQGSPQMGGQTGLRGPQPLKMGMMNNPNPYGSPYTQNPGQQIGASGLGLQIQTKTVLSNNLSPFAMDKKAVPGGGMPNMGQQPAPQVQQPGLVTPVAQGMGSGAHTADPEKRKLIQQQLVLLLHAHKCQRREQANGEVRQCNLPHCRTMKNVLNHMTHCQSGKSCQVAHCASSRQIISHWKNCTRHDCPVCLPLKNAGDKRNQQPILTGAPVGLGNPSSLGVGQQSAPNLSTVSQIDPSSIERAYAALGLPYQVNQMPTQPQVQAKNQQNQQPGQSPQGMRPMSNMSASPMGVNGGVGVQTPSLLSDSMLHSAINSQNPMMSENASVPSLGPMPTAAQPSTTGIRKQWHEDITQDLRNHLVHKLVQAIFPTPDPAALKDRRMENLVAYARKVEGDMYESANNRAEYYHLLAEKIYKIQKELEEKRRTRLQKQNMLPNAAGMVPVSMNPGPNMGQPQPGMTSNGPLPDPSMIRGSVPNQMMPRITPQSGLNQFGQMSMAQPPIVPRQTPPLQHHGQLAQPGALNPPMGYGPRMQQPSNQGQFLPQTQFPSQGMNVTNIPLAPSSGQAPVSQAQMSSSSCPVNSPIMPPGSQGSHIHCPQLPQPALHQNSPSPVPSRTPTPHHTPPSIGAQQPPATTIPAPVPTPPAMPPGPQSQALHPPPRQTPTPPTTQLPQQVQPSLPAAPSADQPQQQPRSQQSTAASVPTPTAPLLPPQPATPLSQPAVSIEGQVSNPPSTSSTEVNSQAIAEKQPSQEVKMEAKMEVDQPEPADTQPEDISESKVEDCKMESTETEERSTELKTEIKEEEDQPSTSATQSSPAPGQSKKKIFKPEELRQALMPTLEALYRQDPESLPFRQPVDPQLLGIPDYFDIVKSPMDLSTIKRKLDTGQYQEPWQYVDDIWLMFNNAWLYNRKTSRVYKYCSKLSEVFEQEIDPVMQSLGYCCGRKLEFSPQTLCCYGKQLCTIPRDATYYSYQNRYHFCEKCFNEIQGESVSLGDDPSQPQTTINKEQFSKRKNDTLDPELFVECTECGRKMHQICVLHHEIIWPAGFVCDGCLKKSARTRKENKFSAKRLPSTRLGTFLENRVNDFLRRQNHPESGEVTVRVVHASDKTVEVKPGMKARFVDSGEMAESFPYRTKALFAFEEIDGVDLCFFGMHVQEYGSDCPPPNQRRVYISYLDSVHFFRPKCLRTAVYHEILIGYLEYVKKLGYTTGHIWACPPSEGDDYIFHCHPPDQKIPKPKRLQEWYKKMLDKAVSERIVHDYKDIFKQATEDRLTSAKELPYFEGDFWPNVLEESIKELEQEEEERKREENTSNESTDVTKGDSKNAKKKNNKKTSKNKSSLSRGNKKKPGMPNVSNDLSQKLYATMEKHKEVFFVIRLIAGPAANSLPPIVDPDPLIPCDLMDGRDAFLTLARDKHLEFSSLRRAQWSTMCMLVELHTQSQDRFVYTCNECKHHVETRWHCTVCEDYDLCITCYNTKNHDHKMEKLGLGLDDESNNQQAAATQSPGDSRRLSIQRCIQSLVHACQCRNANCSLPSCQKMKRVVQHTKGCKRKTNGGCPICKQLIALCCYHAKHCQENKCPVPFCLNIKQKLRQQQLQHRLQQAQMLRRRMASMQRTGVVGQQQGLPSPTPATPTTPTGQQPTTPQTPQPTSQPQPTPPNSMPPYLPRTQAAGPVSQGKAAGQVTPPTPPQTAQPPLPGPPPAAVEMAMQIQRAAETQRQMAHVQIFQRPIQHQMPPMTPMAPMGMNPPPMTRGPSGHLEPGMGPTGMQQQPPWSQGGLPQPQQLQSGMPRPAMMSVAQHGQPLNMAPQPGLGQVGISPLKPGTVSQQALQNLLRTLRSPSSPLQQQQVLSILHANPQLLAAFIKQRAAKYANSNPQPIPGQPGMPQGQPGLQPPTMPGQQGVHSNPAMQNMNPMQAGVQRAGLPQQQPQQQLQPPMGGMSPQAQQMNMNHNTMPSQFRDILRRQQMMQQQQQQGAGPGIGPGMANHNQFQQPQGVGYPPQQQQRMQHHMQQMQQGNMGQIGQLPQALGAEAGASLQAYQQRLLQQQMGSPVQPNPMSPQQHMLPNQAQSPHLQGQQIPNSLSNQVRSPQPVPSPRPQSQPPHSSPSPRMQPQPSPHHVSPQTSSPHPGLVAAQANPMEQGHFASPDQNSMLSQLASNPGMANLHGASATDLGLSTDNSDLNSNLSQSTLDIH
The data set is described as follows: p300 histone acetyltransferase (HAT) enzyme assay. Particulars: for p300 acetylation of Histone 3 (H3) in vitro: recombinant p300, Histone H3, tritiated acetyl CoA, TA at 2%. Type of data set: biochemical. How it is done: Inhibition of p300 acetyltransferase activity. p300 enzyme assays were carried out with TA, TA-NAc, and TA-R2 using commercially available recombinant p300, and recombinant, commercial Histone H3 and tritiated acetyl CoA as the substrates. P300 assays were performed in the presence of increasing concentrations of each compound and acetylation of […] was evaluated by scintillation counting of Histone H3 adsorbed to 1 cm×1 cm nitrocellulose squares, after extensive washing of the nitrocellulose squares with 20% trichloroacetic acid.
as §1

In another data set the test system is MYC oncogene. Kind of data set: Immunoblot analysis of treated MDA-MB-468 cells: MYC expression. Type of data set: cell-based.
Excerpt: as §1

In the case of `COC(=O)[C@H]1CC[C@H](CNC(=N)N)CC1.Cl` [TA-R1-OMe, amino((((1r,4r)-4-(methoxycarbonyl)cyclohexyl)methyl)amino)methaniminium chloride], the “fold lower IC50 than TA (cytotoxicity)” value in data set [1] is “approximately 10 fold”. In data set [2] (phosphate buffered saline (PBS) buffer (pH=7.4)), the “solubility: concentration of solution prepared” value is listed as 2 % (w/v).

In the case of `NC[C@H]1CC[C@H](C(=O)O)CC1` [TA, Tranexamic acid, reference compound], in data set [3], the PD-L1 expression entry was “do not”. For the same compound, the “p300 acetylation of Histone 3 (H3) in vitro” value at recombinant p300 was “does not affect”.

In the case of `Cl.N=C(N)NC[C@H]1CCC[C@@H](C(=O)O)C1` (relative stereo) [TA-R3, cis-amino(((3-carboxycyclohexyl)methyl)amino)methaniminium chloride], in data set [1], the “fold lower IC50 than TA (cytotoxicity)” value is “approximately 10 fold”. In data set [2], the “aqueous solubility (in words)” value was “insolubility; also recorded: poor aqueous solubility” and the “solubility: concentration of solution” value was ~0.1%.

Turning to `N=C(N)NC[C@H]1CC[C@H](C(=O)O)CC1` [TA-R1, trans-4-guanidinomethylcyclohexanecarboxylic acid], in data set [2], the “aqueous solubility (in words)” value is reported as “poor aqueous solubility”.

In the case of `CC(=O)NCC1CCC(C(=O)[O-])CC1.[Na+]` (stereo not drawn) [TA-NAc, reference compound], in data set [3], the PD-L1 expression entry is “do not”. Also, the “aqueous solubility (in words)” value in data set [2] was “better aqueous solubility”.

Regarding `N=C(N)NC[C@@H]1CC[C@H](C(=O)O)C1` (relative stereo) [TA-R4, cis-3-(guanidinomethyl)cyclopentane-1-carboxylic acid], in data set [2], the “aqueous solubility (in words)” value is recorded as “sufficient solubility” and the “solubility: concentration of solution” value was “ca. 2%”.

For `COC(=O)[C@@H]1CCC[C@H](CNC(=N)N)C1.Cl` (relative stereo) [TA-R3-OMe, cis-amino(((3 (methoxycarbonyl)cyclohexyl)methyl)amino)methaniminium chloride], in data set [1], the “fold lower IC50 than TA (cytotoxicity)” value is given as “approximately 10 fold”. Further, the “solubility: concentration of solution” value in data set [2] is on record as “ca. 2%”.

With `Cl.N=C(N)N[C@H]1CC[C@H](C(=O)O)CC1` [TA-R2, amino(((1r,4r)-4-carboxycyclohexyl)amino)methaniminium chloride], in data set [3], the PD-L1 expression result is reported as “decreases programmed death-ligand 1 (PD-L1)”. In the data set with MYC oncogene (0.5%), the “expression of the MYC oncogene at 0.5%” value was “downregulated MYC”. In addition, the “expression of the MYC oncogene at 2% (w/v)” value with MYC oncogene (2% (w/v), compared with TA) was “downregulated expression of the MYC oncogene”. Further, in the data set on MYC oncogene (compared with TA and TA-NAc at the same concentrations), the “expression of the MYC oncogene” value was “decreases expression of the MYC oncogene to a greater extent than TA or NAc-TA”. In addition, the “histone acetylation at 2% (w/v) compared with TA” value on recombinant p300 (2% (w/v)) was “reduced histone acetylation to a greater extent than TA”. For the same compound, the “p300 acetylation of Histone 3 (H3) in vitro” value at recombinant p300 was “decreases histone acetylation more strongly than the other two compounds”. Further, the “aqueous solubility (in words)” value in data set [2] was “good aqueous solubility”.
